Test results reported in patent publication US12612380B2, “Non-lysosomal glucosylceramidase inhibitors and uses thereof” (ALECTOS THERAPEUTICS INC., priority 2019, dated 2026).

target: T1, GBA2 (Homo sapiens, UniProt Q9HCG7); experiment: Determination of IC50 values for inhibition of GBA2 in cell lysate; assay type: biochemical; set-up: host or cells: HEK293T (lentiviral transduction, puromycin selection); used as cellular homogenate; details: cellular homogenate of HEK293T cells overexpressing human GBA2, 250 μM 4-methylumbelliferone-β-D glucopyranoside, pH 5.5, 37° C., GCase inhibitor present; read-out: GBA2 IC50
T1 sequence (Q9HCG7 1-927): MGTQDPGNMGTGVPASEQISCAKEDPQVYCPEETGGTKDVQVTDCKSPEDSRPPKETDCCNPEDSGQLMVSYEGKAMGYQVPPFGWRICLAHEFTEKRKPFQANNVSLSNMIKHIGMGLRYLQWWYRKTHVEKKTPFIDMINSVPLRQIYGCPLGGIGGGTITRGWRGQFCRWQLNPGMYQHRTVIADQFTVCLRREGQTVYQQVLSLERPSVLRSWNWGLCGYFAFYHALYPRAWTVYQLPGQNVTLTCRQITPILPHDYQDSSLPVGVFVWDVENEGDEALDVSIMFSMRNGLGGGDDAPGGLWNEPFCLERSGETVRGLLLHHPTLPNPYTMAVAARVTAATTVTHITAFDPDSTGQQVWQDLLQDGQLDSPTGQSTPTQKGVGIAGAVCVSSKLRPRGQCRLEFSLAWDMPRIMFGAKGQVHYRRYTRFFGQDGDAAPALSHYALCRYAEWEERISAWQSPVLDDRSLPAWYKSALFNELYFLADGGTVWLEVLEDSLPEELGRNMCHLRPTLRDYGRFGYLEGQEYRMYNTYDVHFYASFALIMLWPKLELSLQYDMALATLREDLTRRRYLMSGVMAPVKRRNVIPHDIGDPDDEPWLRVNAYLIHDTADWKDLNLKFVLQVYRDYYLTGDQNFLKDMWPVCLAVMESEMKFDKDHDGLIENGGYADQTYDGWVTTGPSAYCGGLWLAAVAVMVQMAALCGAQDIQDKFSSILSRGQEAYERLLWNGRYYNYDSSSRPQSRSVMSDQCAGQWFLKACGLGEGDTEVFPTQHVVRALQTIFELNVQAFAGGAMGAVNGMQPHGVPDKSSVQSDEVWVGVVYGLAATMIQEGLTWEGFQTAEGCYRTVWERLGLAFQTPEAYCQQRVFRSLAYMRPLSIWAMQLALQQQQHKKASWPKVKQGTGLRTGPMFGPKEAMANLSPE
Procedure, shortened: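 Homogenate of HEK293T cells stably overexpressing human GBA2 (0.083 mg/mL final), pretreated with 20 μM GCase inhibitor, preincubated 5 min at 37 °C with compound, then reacted 20 min with 250 μM 4-methylumbelliferyl-β-D-glucopyranoside at pH 5.5 (citrate-phosphate, 1% C10E6). Fluorescence read at 365/450 nm after alkaline stop; IC50 from log-inhibitor curve fit.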

SMILES | IC50 [µM]
C[C@@H]1[C@@H](O)[C@H](O)[C@@H](O)CN1CC1(C)CCN(c2ccccc2)CC1 [Example 87, (2R,3R,4R,5S)-2-methyl-1-((4-methyl-1-phenylpiperidin-4-yl)methyl)piperidine-3,4,5-triol] | 1 to 25
C[C@@H]1[C@@H](O)[C@H](O)[C@@H](O)CN1CC1CCN(c2cccnc2)CC1 [Example 90, (2R,3R,4R,5S)-2-methyl-1-((1-(pyridin-3-yl)piperidin-4-yl)methyl)piperidine-3,4,5-triol] | 1 to 25
CC(C)C(=O)N1CCC(CN2C[C@H](O)[C@@H](O)[C@H](O)[C@H]2C)CC1 [Example 92, 2-methyl-1-(4-(((2R,3R,4R,5S)-3,4,5-trihydroxy-2-methylpiperidin-1-yl)methyl)piperidin-1-yl)propan-1-one] | 1 to 25
CCCC(=O)N1CCC(CN2C[C@H](O)[C@@H](O)[C@H](O)[C@H]2C)CC1 [Example 94, 1-(4-(((2R,3R,4R,5S)-3,4,5-trihydroxy-2-methylpiperidin-1-yl)methyl)piperidin-1-yl)butan-1-one] | 1 to 25
C[C@@H]1[C@@H](O)[C@H](O)[C@@H](O)CN1CC1CCN(C(=O)C2CC2)CC1 [Example 98, cyclopropyl(4-(((2R,3R,4R,5S)-3,4,5-trihydroxy-2-methylpiperidin-1-yl)methyl)piperidin-1-yl)methanone] | 1 to 25
COC1CCC(C(=O)N2CCC(CN3C[C@H](O)[C@@H](O)[C@H](O)[C@H]3C)CC2)CC1 (stereo partly drawn) [Example 104, (4-methoxycyclohexyl)(4-(((2R,3R,4R,5S)-3,4,5-trihydroxy-2-methylpiperidin-1-yl)methyl)piperidin-1-yl)methanone] | 1 to 25
C[C@@H]1[C@@H](O)[C@H](O)[C@@H](O)CN1CC1CCN(C(=O)c2ccccc2)CC1 [Example 106, phenyl(4-(((2R,3R,4R,5S)-3,4,5-trihydroxy-2-methylpiperidin-1-yl)methyl)piperidin-1-yl)methanone] | 0.1 to 1
C[C@@H]1[C@@H](O)[C@H](O)[C@@H](O)CN1CC1CCN(C(=O)Cc2ccccc2)CC1 [Example 108, 2-phenyl-1-(4-(((2R,3R,4R,5S)-3,4,5-trihydroxy-2-methylpiperidin-1-yl)methyl)piperidin-1-yl)ethanone] | 0.1 to 1
C[C@@H]1[C@@H](O)[C@H](O)[C@@H](O)CN1CC1CCN(C(=O)c2ccsc2)CC1 [Example 109, thiophen-3-yl(4-(((2R,3R,4R,5S)-3,4,5-trihydroxy-2-methylpiperidin-1-yl)methyl)piperidin-1-yl)methanone] | 0.1 to 1
C[C@@H]1[C@@H](O)[C@H](O)[C@@H](O)CN1CC1CCN(C(=O)NC2CCCCC2)CC1 [Example 110, N-cyclohexyl-4-(((2R,3R,4R,5S)-3,4,5-trihydroxy-2-methylpiperidin-1-yl)methyl)piperidine-1-carboxamide] | 0.1 to 1
C[C@@H]1[C@@H](O)[C@H](O)[C@@H](O)CN1CC1CCN(C(=S)NC2CCCCC2)CC1 [Example 111, N-cyclohexyl-4-(((2R,3R,4R,5S)-3,4,5-trihydroxy-2-methylpiperidin-1-yl)methyl)piperidine-1-carbothioamide] | 0.1 to 1
C[C@@H]1[C@@H](O)[C@H](O)[C@@H](O)CN1CC1CN([C@H]2CCCC[C@H]2C(F)(F)F)C1 [Example 112, (2R,3R,4R,5S)-2-methyl-1-((1-((1S,2R)-2-(trifluoromethyl)cyclohexyl)azetidin-3-yl)methyl)piperidine-3,4,5-triol] | 1 to 25

Continued, values first:

IC50 [µM] | SMILES
< 0.1 | C[C@@H]1[C@@H](O)[C@H](O)[C@@H](O)CN1CC1CCN(c2cccc(F)c2)CC1 [Example 84, (2R,3R,4R,5S)-1-((1-(3-fluorophenyl)piperidin-4-yl)methyl)-2-methylpiperidine-3,4,5-triol]
< 0.1 | C[C@@H]1[C@@H](O)[C@H](O)[C@@H](O)CN1CC1CCN(c2ccc(C(F)(F)F)cc2)CC1 [Example 86, (2R,3R,4R,5S)-2-methyl-1-((1-(4-(trifluoromethyl)phenyl)piperidin-4-yl)methyl)piperidine-3,4,5-triol]
0.1 to 1 | C[C@@H]1[C@@H](O)[C@H](O)[C@@H](O)CN1CC1(F)CCN(c2ccccc2)CC1 [Example 88, (2R,3R,4R,5S)-1-((4-fluoro-1-phenylpiperidin-4-yl)methyl)-2-methylpiperidine-3,4,5-triol]
< 0.1 | C[C@@H]1[C@@H](O)[C@H](O)[C@@H](O)CN1CCC1CCN(c2ccccc2)CC1 [Example 89, (2R,3R,4R,5S)-2-methyl-1-(2-(1-phenylpiperidin-4-yl)ethyl)piperidine-3,4,5-triol]
0.1 to 1 | C[C@@H]1[C@@H](O)[C@H](O)[C@@H](O)CN1CC1CCN(CC(F)(F)F)CC1 [Example 91, (2R,3R,4R,5S)-2-methyl-1-((1-(2,2,2-trifluoroethyl)piperidin-4-yl)methyl)piperidine-3,4,5-triol]
0.1 to 1 | C[C@@H]1[C@@H](O)[C@H](O)[C@@H](O)CN1CC1CCN(C(=O)C(C)(C)C)CC1 [Example 93, 2,2-dimethyl-1-(4-(((2R,3R,4R,5S)-3,4,5-trihydroxy-2-methylpiperidin-1-yl)methyl)piperidin-1-yl)propan-1-one]
0.1 to 1 | CC(C)CC(=O)N1CCC(CN2C[C@H](O)[C@@H](O)[C@H](O)[C@H]2C)CC1 [Example 95, 3-methyl-1-(4-(((2R,3R,4R,5S)-3,4,5-trihydroxy-2-methylpiperidin-1-yl)methyl)piperidin-1-yl)butan-1-one]
0.1 to 1 | C[C@@H]1[C@@H](O)[C@H](O)[C@@H](O)CN1CC1CCN(C(=O)CC(C)(C)C)CC1 [Example 96, 3,3-dimethyl-1-(4-(((2R,3R,4R,5S)-3,4,5-trihydroxy-2-methylpiperidin-1-yl)methyl)piperidin-1-yl)butan-1-one]
0.1 to 1 | C[C@@H]1[C@@H](O)[C@H](O)[C@@H](O)CN1CC1CCN(C(=O)CC2CCCC2)CC1 [Example 97, 2-cyclopentyl-1-(4-(((2R,3R,4R,5S)-3,4,5-trihydroxy-2-methylpiperidin-1-yl)methyl)piperidin-1-yl)ethanone]
0.1 to 1 | C[C@@H]1[C@@H](O)[C@H](O)[C@@H](O)CN1CC1CCN(C(=O)C2CCC2)CC1 [Example 99, cyclobutyl(4-(((2R,3R,4R,5S)-3,4,5-trihydroxy-2-methylpiperidin-1-yl)methyl)piperidin-1-yl)methanone]
0.1 to 1 | C[C@@H]1[C@@H](O)[C@H](O)[C@@H](O)CN1CC1CCN(C(=O)C2CCCC2)CC1 [Example 100, cyclopentyl(4-(((2R,3R,4R,5S)-3,4,5-trihydroxy-2-methylpiperidin-1-yl)methyl)piperidin-1-yl)methanone]
0.1 to 1 | C[C@@H]1[C@@H](O)[C@H](O)[C@@H](O)CN1CC1CCN(C(=O)C2CCCCC2)CC1 [Example 101, cyclohexyl(4-(((2R,3R,4R,5S)-3,4,5-trihydroxy-2-methylpiperidin-1-yl)methyl)piperidin-1-yl)methanone]
< 0.1 | C[C@@H]1[C@@H](O)[C@H](O)[C@@H](O)CN1CC1CCN(C(=O)[C@H]2CC[C@@H](C(C)(C)C)CC2)CC1 [Example 102, ((1s,4S)-4-(tert-butyl)cyclohexyl)(4-(((2R,3R,4R,5S)-3,4,5-trihydroxy-2-methylpiperidin-1-yl)methyl)piperidin-1-yl)methanone]
< 0.1 | C[C@@H]1[C@@H](O)[C@H](O)[C@@H](O)CN1CC1CCN(C(=O)[C@H]2CC[C@H](C(C)(C)C)CC2)CC1 [Example 103, ((1r,4R)-4-(tert-butyl)cyclohexyl)(4-(((2R,3R,4R,5S)-3,4,5-trihydroxy-2-methylpiperidin-1-yl)methyl)piperidin-1-yl)methanone]
< 0.1 | C[C@@H]1[C@@H](O)[C@H](O)[C@@H](O)CN1CC1CCN(C(=O)C2CCC(C(F)(F)F)CC2)CC1 (stereo partly drawn) [Example 105, (4-(trifluoromethyl)cyclohexyl)(4-(((2R,3R,4R,5S)-3,4,5-trihydroxy-2-methylpiperidin-1-yl)methyl)piperidin-1-yl)methanone]
< 0.1 | C[C@@H]1[C@@H](O)[C@H](O)[C@@H](O)CN1CC1CCN(C(=O)c2cccc(C(F)(F)F)c2)CC1 [Example 107, (3-(trifluoromethyl)phenyl)(4-(((2R,3R,4R,5S)-3,4,5-trihydroxy-2-methylpiperidin-1-yl)methyl)piperidin-1-yl)methanone]
